Experimental findings from patent publication US10961197B2, “Metal chelators for imaging, therapeutics, and bioanalysis” (THE BOARD OF TRUSTEES OF THE UNIVERSITY OF ILLINOIS, priority 2016, dated 2021) are described below.

Holding throughout (assay type): physicochemical
Series [1] is described as follows: Metallation of chelator with Tb in buffer at 1:1 ratio, judged by green Tb luminescence. Conditions: 1:1 ratio in buffer. How it is done: (§1) Complete metallation, as judged by formation of green Tb luminescence, occurred in less than 15 min. The resulting complex was then diluted to a final concentration of 5 nM in buffer solution that contained a much higher concentration (1 mM) of a competing chelator, ethylene diamine tetraacetic acid (EDTA). By observing the metal luminescence over time, the kinetic inertness of compound iii relative to that of other known chelators was assessed.

A short description of series [2]: Quantum yield of emission of lanthanide complexes in water / aqueous buffer. The following applies: Tb complex. How it is done: A cyclohexyl analog of the metal chelator was prepared with methylenecarboxylate pendant groups and a sensitizing chromophore (carbostyril 124) appended to one of the central nitrogens (compound iii). The synthesis of compound iii was remarkably efficient (8 steps, 45% overall yield). Moreover, it can be scaled up and altered to prepare different derivatives, as evidenced by the incorporation of a single chromophore into the structure. Given its position in the molecule, the amide oxygen between the cyclohexyl nitrogen and the chromophore may coordinate to a bound Tb ion. This coordination in turn would allow for efficient sensitization of metal luminescence and result in a high quantum yield of emission. […] The quantum yield of compound iii exceeded 50% in water, making it among the most efficient luminescent Tb complexes known.
All of the complexes prepared show characteristic lanthanide emission spectra. UV-Vis absorption spectra closely matched those of previously reported carbostyril-sensitized complexes. […] The efficient emission and lack of bound waters support the hypothesis that inner substitution positions the sensitizer such that it remains coordinated to the metal center.

A short description of series [3]: EDTA challenge assay of kinetic inertness (luminescence over time, 5 nM complex, 1 mM EDTA). Conditions: for stability in EDTA solution: for 2 days. How it is done:
FIG. 2 is a graph of the relative kinetic stability as measured by the luminescence signal intensity at ca. 545 nm (for Tb(III) complexes) or 620 nm (for Eu(III) complexes) for various dilute aqueous solutions (5 nM) of the indicated metal complexes in TBS buffer containing 1 mM EDTA.
FIG. 3 is a graph of the relative kinetic stability as measured by the luminescence signal intensity at ca. 545 nm (for Tb(III) complexes) or 620 nm (for Eu(III) complexes) for various dilute aqueous solutions (5 nM) of the indicated metal complexes in TBS buffer containing 1 mM EDTA.
The cyclic TTHA-based complexes Tb-12a and Eu-12b were still more than 40% in emissive after 48 h.
as §1

Turning to `Cc1cc(=O)[nH]c2c(NC(=O)CN(CCN(CC(=O)O)[C@@H]3CCCC[C@H]3N(CC(=O)O)CC(=O)O)[C@H]3CCCC[C@@H]3N(CC(=O)O)CC(=O)O)cccc12` [Compound iii], in series [1], the “time to complete metallation” value is given as “less than 15 min”. The quantum yield entry in series [2] is reported as “exceeded 50%”. In addition, the “time to equilibrate with the EDTA solution” value in series [3] (Tb complex) was 2 to 3 h. Further, the “stability in EDTA solution” value in series [3] was “remains essentially stable”. `O=C(O)CN1CCN(CC(=O)O)CCN(CC(=O)O)CCN(CC(=O)O)CC1` [DOTA, 1,4,7,10-tetraazacyclododecane-1,4,7,10-tetraacetic acid]: in series [3], the “stability in EDTA solution” value is “remains essentially stable”.

Consider `O=C(O)CN(CCN(CC(=O)O)CC(=O)O)CCN(CC(=O)O)CC(=O)O` [DTPA, diethylamine triamine pentaacetic acid], for which the “time to complete dissociation from Tb(III)” value in series [3] is “ca. 10 h”.

Consider DOTAm, for which, in series [3], the “stability in EDTA solution” value is on record as “remains essentially stable”.
